From US10130693B2, “Peptides, combination of peptides and scaffolds for use in immunotherapeutic treatment of various cancers” (Immatics Biotechnologies GmbH, priority 2015, dated 2018)

tested on: HLA-A*24; test: MHC binding assay, UV-ligand exchange with beta2m ELISA (exchange yield), HLA-A*24; set-up: species or system human; conditions: binding to HLA-A*24, UV-ligand exchange
From the text: Candidate peptides for T cell based therapies according to the present invention were further tested for their MHC binding capacity (affinity). The individual peptide-MHC complexes were produced by UV-ligand exchange, where a UV-sensitive peptide is cleaved upon UV-irradiation, and exchanged with the peptide of interest as analyzed. Only peptide candidates that can effectively bind and stabilize the peptide-receptive MHC molecules prevent dissociation of the MHC complexes. To determine the yield of the exchange reaction, an ELISA was performed based on the detection of the light chain (β2m) of stabilized MHC complexes. The assay was performed as generally described in Rodenko et al. (Rodenko et al., 2006).
96 well MAXISorp plates (NUNC) were coated over night with 2 ug/ml streptavidin in PBS at room temperature, washed 4× and blocked for 1 h at 37° C. in 2% BSA containing blocking buffer. […] Peptide-MHC monomers of the UV-exchange reaction were diluted 100 fold in blocking buffer. Samples were incubated for 1 h at 37° C., washed four times, incubated with 2 ug/ml HRP conjugated anti-β2m for 1h at 37° C., washed again and detected with TMB solution that is stopped with […]. Absorption was measured at 450 nm. Candidate peptides that show a high exchange yield (preferably higher than 50%, most preferred higher than 75%) are generally preferred for a generation and production of antibodies or fragments thereof, and/or T cell receptors or fragments thereof, as they show sufficient avidity to the MHC molecules and prevent dissociation of the MHC complexes.

Peptide exchange (MHC class I binding score, peptide exchange yield) | Substance
+++ (50%-75% = +++) | 306 (VYPAEQPQI; listed as Homo sapiens) [compound 306]
+++ (50%-75% = +++) | 294 (RFPVQGTVTF; listed as Homo sapiens) [compound 294]
+++ (50%-75% = +++) | 263 (RYILENHDF; listed as Homo sapiens) [compound 263]
+++ (50%-75% = +++) | 193 (LYLENNAQTQF; listed as Homo sapiens) [compound 193]
++++ (>=75% = ++++) | 301 (KFDDVTMLF; listed as Homo sapiens) [compound 301]
++++ (>=75% = ++++) | 184 (IYSVGAFENF; listed as Homo sapiens) [compound 184]
+++ (50%-75% = +++) | 194 (VYQSLSNSL; listed as Homo sapiens) [compound 194]
++++ (>=75% = ++++) | 128 (VYPFDWQYI; listed as Homo sapiens) [compound 128]
+++ (50%-75% = +++) | 378 (VYIAELEKI; listed as Homo sapiens) [compound 378]
+++ (50%-75% = +++) | 145 (VYALKVRTI; listed as Homo sapiens) [compound 145]
+++ (50%-75% = +++) | 307 (GYAFTLPLF; listed as Homo sapiens) [compound 307]
++++ (>=75% = ++++) | 262 (VYSSQFETI; listed as Homo sapiens) [compound 262]
++ (20%-49% = ++) | 246 (KYLSVQLTL; listed as Homo sapiens) [compound 246]
+++ (50%-75% = +++) | 254 (KYLESSATF; listed as Homo sapiens) [compound 254]
+++ (50%-75% = +++) | 375 (KYTDYILKI; listed as Homo sapiens) [compound 375]
+++ (50%-75% = +++) | 236 (VYLPKIPSW; listed as Homo sapiens) [compound 236]
+++ (50%-75% = +++) | 300 (TYPSQLPSL; listed as Homo sapiens) [compound 300]
+++ (50%-75% = +++) | 214 (KYLMELTLI; listed as Homo sapiens) [compound 214]
++++ (>=75% = ++++) | 292 (FYPQIINTF; listed as Homo sapiens) [compound 292]
++++ (>=75% = ++++) | 97 (TYTFLKETF; listed as Homo sapiens) [compound 97]
+++ (50%-75% = +++) | 383 (RYKPGEPITF; listed as Homo sapiens) [compound 383]

Peptide exchange (MHC class I binding score, peptide exchange yield) | Substance
++++ (>=75% = ++++) | 154 (VYGVPTPHF; listed as Homo sapiens) [compound 154]
++++ (>=75% = ++++) | 319 (KYSDVKNLI; listed as Homo sapiens) [compound 319]
+++ (50%-75% = +++) | 230 (TYGMVMVTF; listed as Homo sapiens) [compound 230]
++++ (>=75% = ++++) | 296 (SYQVIFQHF; listed as Homo sapiens) [compound 296]
+++ (50%-75% = +++) | 218 (LYSELNKWSF; listed as Homo sapiens) [compound 218]
+++ (50%-75% = +++) | 251 (VYTKALSSL; listed as Homo sapiens) [compound 251]
+++ (50%-75% = +++) | 201 (GYNPNRVFF; listed as Homo sapiens) [compound 201]
+++ (50%-75% = +++) | 318 (TYSNSAFQYF; listed as Homo sapiens) [compound 318]
++++ (>=75% = ++++) | 260 (VYMNVMTRL; listed as Homo sapiens) [compound 260]
+++ (50%-75% = +++) | 204 (EYLSTCSKL; listed as Homo sapiens) [compound 204]
+++ (50%-75% = +++) | 310 (IYAPTLLVF; listed as Homo sapiens) [compound 310]
+++ (50%-75% = +++) | 146 (NYYERIHAL; listed as Homo sapiens) [compound 146]
+++ (50%-75% = +++) | 303 (LYSVIKEDF; listed as Homo sapiens) [compound 303]
++++ (>=75% = ++++) | 223 (TFITQSPLL; listed as Homo sapiens) [compound 223]
+++ (50%-75% = +++) | 141 (SYNGHLTIWF; listed as Homo sapiens) [compound 141]
+++ (50%-75% = +++) | 355 (IYVTGGHLF; listed as Homo sapiens) [compound 355]
+++ (50%-75% = +++) | 279 (VWLPASVLF; listed as Homo sapiens) [compound 279]
++++ (>=75% = ++++) | 264 (LYTETRLQF; listed as Homo sapiens) [compound 264]
+++ (50%-75% = +++) | 388 (IYGEKTYAF; listed as Homo sapiens) [compound 388]
+++ (50%-75% = +++) | 247 (SFTKTSPNF; listed as Homo sapiens) [compound 247]
+++ (50%-75% = +++) | 316 (VYFEGSDFKF; listed as Homo sapiens) [compound 316]

Peptide exchange (MHC class I binding score, peptide exchange yield) | Substance
+++ (50%-75% = +++) | 281 (NYSPGLVSLIL; listed as Homo sapiens) [compound 281]
++ (20%-49% = ++) | 288 (VYPDTVALTF; listed as Homo sapiens) [compound 288]
++++ (>=75% = ++++) | 297 (TYIDTRTVF; listed as Homo sapiens) [compound 297]
+++ (50%-75% = +++) | 287 (IYNPNLLTASKF; listed as Homo sapiens) [compound 287]
++ (20%-49% = ++) | 213 (SYAPPSEDLFL; listed as Homo sapiens) [compound 213]
++ (20%-49% = ++) | 198 (DYVGFTLKI; listed as Homo sapiens) [compound 198]
+++ (50%-75% = +++) | 235 (VYKDSIYYI; listed as Homo sapiens) [compound 235]
+++ (50%-75% = +++) | 269 (QYPYLQAFF; listed as Homo sapiens) [compound 269]
+++ (50%-75% = +++) | 369 (VYTHEVVTL; listed as Homo sapiens) [compound 369]
++++ (>=75% = ++++) | 252 (AFGQETNVPLNNF; listed as Homo sapiens) [compound 252]
+++ (50%-75% = +++) | 361 (TYADIGGLDNQI; listed as Homo sapiens) [compound 361]
++++ (>=75% = ++++) | 313 (KYTHFIQSF; listed as Homo sapiens) [compound 313]
++++ (>=75% = ++++) | 153 (VYVPFGGKSMITF; listed as Homo sapiens) [compound 153]
++++ (>=75% = ++++) | 116 (AYVIAVHLF; listed as Homo sapiens) [compound 116]
++++ (>=75% = ++++) | 272 (RYVFPLPYL; listed as Homo sapiens) [compound 272]
+++ (50%-75% = +++) | 239 (VYAIFRILL; listed as Homo sapiens) [compound 239]
+++ (50%-75% = +++) | 108 (PYLVVIHTL; listed as Homo sapiens) [compound 108]
+++ (50%-75% = +++) | 342 (NYAFLHRTL; listed as Homo sapiens) [compound 342]
+++ (50%-75% = +++) | 237 (KYVGQLAVL; listed as Homo sapiens) [compound 237]
++ (20%-49% = ++) | 374 (VFLPRVTEL; listed as Homo sapiens) [compound 374]
